The values that follow come from patent US8691865B2 (AbbVie Inc., priority 2008, dated 2014).

The target of the first experiment is human Cav2.2 (Homo sapiens, UniProt Q00975). The experiment is described as follows: Assessment of calcium channel activity using FLIPR (Ca2+ influx in IMR32 cells). The experiment is classed as cell-based.
human Cav2.2, sequence (Q00975 whole entry): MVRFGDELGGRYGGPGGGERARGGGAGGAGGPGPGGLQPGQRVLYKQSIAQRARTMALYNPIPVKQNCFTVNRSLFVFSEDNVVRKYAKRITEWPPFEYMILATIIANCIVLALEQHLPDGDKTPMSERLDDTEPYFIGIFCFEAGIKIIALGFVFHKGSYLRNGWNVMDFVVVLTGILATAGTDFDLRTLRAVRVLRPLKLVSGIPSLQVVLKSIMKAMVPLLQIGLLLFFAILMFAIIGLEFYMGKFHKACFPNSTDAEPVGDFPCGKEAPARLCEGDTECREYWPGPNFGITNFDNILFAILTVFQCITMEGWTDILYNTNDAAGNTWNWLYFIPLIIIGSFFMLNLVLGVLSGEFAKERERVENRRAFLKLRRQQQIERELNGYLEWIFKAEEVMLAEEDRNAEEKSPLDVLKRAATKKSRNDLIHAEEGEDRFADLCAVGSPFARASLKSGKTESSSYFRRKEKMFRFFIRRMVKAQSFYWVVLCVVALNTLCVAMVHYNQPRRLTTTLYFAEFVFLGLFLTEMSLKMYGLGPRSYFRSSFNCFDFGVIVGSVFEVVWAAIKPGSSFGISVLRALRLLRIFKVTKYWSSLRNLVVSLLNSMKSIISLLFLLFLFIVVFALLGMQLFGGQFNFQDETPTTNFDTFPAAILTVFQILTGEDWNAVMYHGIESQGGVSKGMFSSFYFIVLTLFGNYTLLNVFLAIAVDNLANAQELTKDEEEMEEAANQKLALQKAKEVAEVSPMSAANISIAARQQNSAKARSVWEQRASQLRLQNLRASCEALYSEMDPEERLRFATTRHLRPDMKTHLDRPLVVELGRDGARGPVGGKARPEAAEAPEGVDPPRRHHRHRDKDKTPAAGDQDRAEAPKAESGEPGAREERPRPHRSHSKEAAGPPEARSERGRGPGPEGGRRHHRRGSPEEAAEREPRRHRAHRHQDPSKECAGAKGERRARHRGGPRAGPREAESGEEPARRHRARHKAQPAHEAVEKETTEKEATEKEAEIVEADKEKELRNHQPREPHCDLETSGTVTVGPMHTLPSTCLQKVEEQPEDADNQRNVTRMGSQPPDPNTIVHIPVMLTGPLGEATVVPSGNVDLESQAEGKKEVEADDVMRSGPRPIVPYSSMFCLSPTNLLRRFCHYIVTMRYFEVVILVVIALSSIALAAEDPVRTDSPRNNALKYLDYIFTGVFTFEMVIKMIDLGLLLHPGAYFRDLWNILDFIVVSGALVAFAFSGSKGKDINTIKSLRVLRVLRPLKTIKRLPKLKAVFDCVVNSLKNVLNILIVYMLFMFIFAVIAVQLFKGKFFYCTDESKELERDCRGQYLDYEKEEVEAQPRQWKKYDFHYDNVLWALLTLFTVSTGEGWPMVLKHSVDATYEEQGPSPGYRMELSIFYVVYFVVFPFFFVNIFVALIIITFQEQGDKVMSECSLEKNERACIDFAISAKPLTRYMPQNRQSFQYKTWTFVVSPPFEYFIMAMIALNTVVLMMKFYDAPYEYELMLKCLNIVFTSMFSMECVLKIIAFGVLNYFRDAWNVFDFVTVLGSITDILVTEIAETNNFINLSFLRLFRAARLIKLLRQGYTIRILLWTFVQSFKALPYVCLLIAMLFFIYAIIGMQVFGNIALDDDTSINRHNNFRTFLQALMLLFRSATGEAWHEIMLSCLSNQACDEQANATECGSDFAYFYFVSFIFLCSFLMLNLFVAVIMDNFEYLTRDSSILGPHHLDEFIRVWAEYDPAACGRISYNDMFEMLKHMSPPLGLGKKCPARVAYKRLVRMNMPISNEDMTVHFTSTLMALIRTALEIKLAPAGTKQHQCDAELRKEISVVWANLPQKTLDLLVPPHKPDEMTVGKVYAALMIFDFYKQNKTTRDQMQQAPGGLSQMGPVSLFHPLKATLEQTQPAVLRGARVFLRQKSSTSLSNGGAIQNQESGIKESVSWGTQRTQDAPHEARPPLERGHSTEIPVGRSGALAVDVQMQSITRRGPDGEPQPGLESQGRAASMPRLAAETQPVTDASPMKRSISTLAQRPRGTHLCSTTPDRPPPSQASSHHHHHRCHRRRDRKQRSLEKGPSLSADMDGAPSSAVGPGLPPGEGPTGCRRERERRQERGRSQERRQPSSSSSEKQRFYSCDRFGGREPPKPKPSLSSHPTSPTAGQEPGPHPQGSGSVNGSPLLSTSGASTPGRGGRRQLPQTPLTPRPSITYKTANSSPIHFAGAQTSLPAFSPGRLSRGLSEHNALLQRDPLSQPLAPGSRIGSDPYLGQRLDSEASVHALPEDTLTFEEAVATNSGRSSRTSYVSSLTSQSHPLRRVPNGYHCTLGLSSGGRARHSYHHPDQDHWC
human Cav2.2, sequence (P54289 25-956 partner limits assumed): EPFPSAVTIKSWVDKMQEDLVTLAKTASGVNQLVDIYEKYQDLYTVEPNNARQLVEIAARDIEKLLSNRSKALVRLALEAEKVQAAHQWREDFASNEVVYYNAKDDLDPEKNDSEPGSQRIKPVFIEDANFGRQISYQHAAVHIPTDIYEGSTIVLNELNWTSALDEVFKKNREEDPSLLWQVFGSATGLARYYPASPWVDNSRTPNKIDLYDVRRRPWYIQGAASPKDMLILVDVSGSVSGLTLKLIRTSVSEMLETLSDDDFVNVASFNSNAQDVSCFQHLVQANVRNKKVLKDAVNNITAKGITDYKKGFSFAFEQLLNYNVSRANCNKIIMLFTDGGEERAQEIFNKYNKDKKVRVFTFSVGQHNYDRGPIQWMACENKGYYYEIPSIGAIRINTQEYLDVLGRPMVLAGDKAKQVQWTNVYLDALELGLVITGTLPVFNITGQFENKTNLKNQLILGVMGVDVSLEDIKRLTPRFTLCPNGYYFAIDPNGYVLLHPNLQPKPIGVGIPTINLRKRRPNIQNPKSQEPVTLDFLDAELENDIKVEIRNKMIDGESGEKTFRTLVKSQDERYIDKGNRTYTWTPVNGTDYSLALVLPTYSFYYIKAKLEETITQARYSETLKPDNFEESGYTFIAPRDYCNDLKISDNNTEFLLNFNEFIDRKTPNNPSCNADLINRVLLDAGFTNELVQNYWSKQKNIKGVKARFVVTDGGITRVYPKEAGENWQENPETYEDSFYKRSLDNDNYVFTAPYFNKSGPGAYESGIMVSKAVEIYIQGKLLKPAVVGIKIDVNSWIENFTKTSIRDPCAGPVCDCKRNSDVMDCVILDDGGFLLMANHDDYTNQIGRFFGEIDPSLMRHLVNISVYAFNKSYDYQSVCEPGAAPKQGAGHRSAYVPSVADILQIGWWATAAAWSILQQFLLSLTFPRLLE
human Cav2.2, sequence (P54289 957-1103 partner limits assumed): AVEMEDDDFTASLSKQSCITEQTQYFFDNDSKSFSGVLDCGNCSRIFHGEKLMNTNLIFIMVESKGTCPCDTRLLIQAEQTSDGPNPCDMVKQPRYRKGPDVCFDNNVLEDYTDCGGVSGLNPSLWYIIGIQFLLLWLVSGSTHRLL
human Cav2.2, sequence (P54284 whole entry partner): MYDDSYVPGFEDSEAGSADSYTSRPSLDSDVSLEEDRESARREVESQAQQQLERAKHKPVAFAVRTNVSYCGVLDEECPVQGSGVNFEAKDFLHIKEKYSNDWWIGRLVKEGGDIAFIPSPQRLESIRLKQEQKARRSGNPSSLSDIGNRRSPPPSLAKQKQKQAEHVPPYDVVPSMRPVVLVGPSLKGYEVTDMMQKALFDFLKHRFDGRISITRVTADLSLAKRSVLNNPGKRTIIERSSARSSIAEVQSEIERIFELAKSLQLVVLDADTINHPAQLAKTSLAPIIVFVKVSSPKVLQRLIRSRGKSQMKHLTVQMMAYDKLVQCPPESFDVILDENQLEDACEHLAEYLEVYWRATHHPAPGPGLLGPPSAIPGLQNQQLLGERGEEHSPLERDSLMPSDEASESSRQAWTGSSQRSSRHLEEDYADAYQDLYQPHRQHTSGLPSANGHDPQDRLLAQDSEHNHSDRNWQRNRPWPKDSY
Details: not given
In short, it runs like this: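 IC50 values derive from nonlinear sigmoidal fitting of percent inhibition, relative to inhibitor-free activity, of Ca2+ influx read by FLIPR. Cells were IMR32 human neuroblastoma, plated at 1−1.2×10^5 per well and grown 48 h at 37 °C.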
In the case of `O=C(N[C@@H]1CC[C@H]2CN(Cc3ccccc3)C[C@H]21)[C@@H]1CCCCN1` [Example 350, (2S)-N-[(3aS,4R,6aR)-2-benzyloctahydrocyclopenta[c]pyrrol-4-yl]piperidine-2-carboxamide], the IC50 (as a rule, the concentration that gives 50% inhibition) was greater than 30 µM.

Consider `Fc1ccc(-c2nc(CN[C@H]3CC[C@@H]4CN(c5cccc(C(F)(F)F)n5)C[C@@H]43)co2)cc1` [Example 743, (3aR,4S,6aS)-N-{[2-(4-fluorophenyl)-1,3-oxazol-4-yl]methyl}-2-[6-(trifluoromethyl)pyridin-2-yl]octahydrocyclopenta[c]pyrrol-4-amine], for which the concentration for half-maximal inhibition (IC50) was 1 µM. In the case of `CN[C@@H](CC(C)C)C(=O)N[C@H]1CC[C@@H]2CN(Cc3ccccc3)C[C@@H]21` [Example 348, N^1-[(3aR,4S,6aS)-2-benzyloctahydrocyclopenta[c]pyrrol-4-yl]-N^2-methyl-L-leucinamide], the IC50 was greater than 30 µM.

For the compound `O=C(N[C@H]1CC[C@H]2CN(Cc3cccc(C(F)(F)F)c3)C[C@H]21)C1CCCCCC1` (relative stereo) [Example 128, N-{(3aS*,4S*,6aR*)-2-[3-(trifluoromethyl)benzyl]octahydrocyclopenta[c]pyrrol-4-yl}cycloheptanecarboxamide], the IC50 turned out to be 0.56 µM. For `O=C(N[C@H]1CC[C@@H]2CN(c3cccc(C(F)(F)F)n3)C[C@@H]21)[C@H]1CC[C@@H](O)CC1` [Example 584, cis-4-hydroxy-N-{(3aR,4S,6aS)-2-[6-(trifluoromethyl)pyridin-2-yl]octahydrocyclopenta[c]pyrrol-4-yl}cyclohexanecarboxamide], the concentration for half-maximal inhibition (IC50) worked out at 2.06 µM. For `CC(C)CN[C@H]1CC[C@@H]2CN(c3cccc(C(F)(F)F)n3)C[C@@H]21` [Example 610, (3aR,4S,6aS)-N-isobutyl-2-[6-(trifluoromethyl)pyridin-2-yl]octahydrocyclopenta[c]pyrrol-4-amine], the 50% inhibitory concentration (IC50) is 2.01 µM.

Turning to `O=C(N[C@H]1CC[C@@H]2CN(c3cccc(C(F)(F)F)c3)C[C@@H]21)[C@@H]1C[C@@H](F)CN1` [Example 617, (4R)-4-fluoro-N-{(3aR,4S,6aS)-2-[3-(trifluoromethyl)phenyl]octahydrocyclopenta[c]pyrrol-4-yl}-L-prolinamide], the half-maximal inhibitory concentration (IC50) stood at 2.57 µM. The same measure, in the same setting: the same measure for `CN[C@@H](CC(C)C)C(=O)N[C@H]1CC[C@@H]2CN(c3ccc(Cl)cc3)C[C@@H]21` [Example 639, N-[(3aR,4S,6aS)-2-(4-chlorophenyl)octahydrocyclopenta[c]pyrrol-4-yl]-N^2-methyl-L-leucinamide]: 7.77 µM; for `CC(C)C(C(=O)N[C@H]1CC[C@@H]2CN(CCCc3ccccc3)C[C@@H]21)c1ccccc1` (stereo partly drawn) [Example 105, 3-methyl-2-phenyl-N-[(3aR,4S,6aS)-2-(3-phenylpropyl)octahydrocyclopenta[c]pyrrol-4-yl]butanamide]: 1.21 µM; for `CCC[C@H](NC)C(=O)N(C)[C@H]1CC[C@@H]2CN(S(=O)(=O)c3ccc(C(F)(F)F)cc3)C[C@@H]21` [Example 438, N^1,N^2-dimethyl-N^1-((3aR,4S,6aS)-2-{[4-(trifluoromethyl)phenyl]sulfonyl}octahydrocyclopenta[c]pyrrol-4-yl)-L-norvalinamide]: 5.7 µM. Regarding `CC(C)[C@@H](C(=O)N[C@@H]1CC[C@H]2CN(Cc3cccc(C(F)(F)F)c3)C[C@H]21)N(C)C(=O)OC(C)(C)C` [Example 316, tert-butyl methyl((S)-3-methyl-1-oxo-1-((3aS,4R,6aR)-2-(3-(trifluoromethyl)benzyl)octahydrocyclopenta[c]pyrrol-4-ylamino)butan-2-yl)carbamate], the IC50 was found to be 2.02 µM. On the same count and under the same terms, the same measure for `O=S(=O)(N[C@H]1CC[C@@H]2CN(c3cccc(C(F)(F)F)n3)C[C@@H]21)c1cccc(F)c1` [Example 702, 3-fluoro-N-{(3aR,4S,6aS)-2-[6-(trifluoromethyl)pyridin-2-yl]octahydrocyclopenta[c]pyrrol-4-yl}benzenesulfonamide]: 2.55 µM; for `O=C(N[C@H]1CC[C@H]2CN(Cc3cccc(F)c3)C[C@H]21)C(C1CCCCC1)C1CCCCC1` [Example 64, 2,2-dicyclohexyl-N-[(3aS,4S,6aR)-2-(3-fluorobenzyl)octahydrocyclopenta[c]pyrrol-4-yl]acetamide]: 0.99 µM; for `CNC(C)(C)C(=O)N[C@H]1CC[C@@H]2CN(c3ccc(C(F)(F)F)cc3)C[C@@H]21` [Example 754, N^2,2-dimethyl-N-{(3aR,4S,6aS)-2-[4-(trifluoromethyl)phenyl]octahydrocyclopenta[c]pyrrol-4-yl}alaninamide]: 6.78 µM. Regarding `CCC[C@H](NC)C(=O)N[C@H]1CC[C@@H]2CN(S(=O)(=O)c3ccc(OC)c(OC)c3)C[C@@H]21` [Example 545, N^1-{(3aR,4S,6aS)-2-[(3,4-dimethoxyphenyl)sulfonyl]octahydrocyclopenta[c]pyrrol-4-yl}-N^2-methyl-L-norvalinamide], the half-inhibitory concentration (IC50) is greater than 30 µM.

For `N[C@H]1CC[C@@H]2CN(c3ccc(C(F)(F)F)cc3)C[C@@H]21` [Example 607, (3aR,4S,6aS)-2-[4-(trifluoromethyl)phenyl]octahydrocyclopenta[c]pyrrol-4-amine], the concentration for half-maximal inhibition (IC50) is 6.4 µM.

Consider `CC(C)C[C@@H](C(=O)N[C@@H]1CC[C@H]2CN(Cc3ccccc3)C[C@H]21)N1CCCC1` [Example 250, (2S)-N-[(3aS,4R,6aR)-2-benzyloctahydrocyclopenta[c]pyrrol-4-yl]-4-methyl-2-pyrrolidin-1-ylpentanamide], for which the IC50 is greater than 30 µM.

As to `FC(F)(F)c1cccc(N2C[C@H]3CC[C@H](NCc4c[nH]c5ccccc45)[C@H]3C2)n1` [Example 684, (3aR,4S,6aS)-N-(1H-indol-3-ylmethyl)-2-[6-(trifluoromethyl)pyridin-2-yl]octahydrocyclopenta[c]pyrrol-4-amine], the half-inhibitory concentration (IC50) worked out at 1.05 µM. The same measure, in the same setting: the result for `CN[C@@H](CC(C)C)C(=O)N[C@H]1CC[C@@H]2CN(c3cccc(SC(F)(F)F)c3)C[C@@H]21` [Example 712, N^2-methyl-N-[(3aR,4S,6aS)-2-{3-[(trifluoromethyl)thio]phenyl]octahydrocyclopenta[c]pyrrol-4-yl}-L-leucinamide] reads 1.01 µM; that for `FC(F)(F)c1cccc(N2C[C@H]3CC[C@H](NCc4nc(-c5ccccc5)c[nH]4)[C@H]3C2)n1` [Example 746, (3aR,4S,6aS)-N-[(4-phenyl-1H-imidazol-2-yl)methyl]-2-[6-(trifluoromethyl)pyridin-2-yl]octahydrocyclopenta[c]pyrrol-4-amine], 1.71 µM; that for `CN[C@@H](CC(C)C)C(=O)N[C@H]1CC[C@@H]2CN(c3ccc(F)c(C(F)(F)F)c3)C[C@@H]21` [Example 621, N-{(3aR,4S,6aS)-2-[4-fluoro-3-(trifluoromethyl)phenyl]octahydrocyclopenta[c]pyrrol-4-yl}-N^2-methyl-L-leucinamide], 0.99 µM. Regarding `O=C(N[C@H]1CC[C@H]2CN(Cc3cccc(C(F)(F)F)c3)C[C@H]21)C(c1ccccc1)c1ccccc1` (relative stereo) [Example 135, 2,2-diphenyl-N-{(3aS*,4S*,6aR*)-2-[3-(trifluoromethyl)benzyl]octahydrocyclopenta[c]pyrrol-4-yl}acetamide], the concentration for half-maximal inhibition (IC50) was determined as 0.67 µM. Turning to `CN[C@@H](CC(C)C)C(=O)N[C@H]1CC[C@@H]2CN(c3cncc(C(F)(F)F)c3)C[C@@H]21` [Example 736, N^2-methyl-N-{(3aR,4S,6aS)-2-[5-(trifluoromethyl)pyridin-3-yl]octahydrocyclopenta[c]pyrrol-4-yl}-L-leucinamide], the IC50 was 3.34 µM.

The experiment is the same for the next values; noted with them: read-out: IC50 (μM) or percent inhibition (* indicates 3 minute incubation, otherwise 60 minute); IC50; 60 minute pre-incubation with compound; IMR32 cells, 80 mM KCl depolarization.
As to `CN[C@@H](CC(C)C)C(=O)N[C@@H]1CC[C@H]2CN(Cc3ccc(F)cc3)C[C@H]21` [Example 450, N^1-[(3aS,4R,6aR)-2-(4-fluorobenzyl)octahydrocyclopenta[c]pyrrol-4-yl]-N^2-methyl-L-leucinamide], the half-maximal inhibitory concentration (IC50) stood at 9.26 µM. The same measure, in the same setting: the result for `O=C(CC(c1ccc(F)cc1)c1ccc(F)cc1)N[C@H]1CC[C@H]2CN(Cc3cccc(C(F)(F)F)c3)C[C@H]21` (relative stereo) [Example 133, 3,3-bis(4-fluorophenyl)-N-{(3aS*,4S*,6aR*)-2-[3-(trifluoromethyl)benzyl]octahydrocyclopenta[c]pyrrol-4-yl}propanamide] reads 0.69 µM; that for `CC(C)C(C(=O)N[C@@H]1CC[C@H]2CN(Cc3ccccc3)C[C@H]21)c1ccccc1` (stereo partly drawn) [Example 18, N-[(3aS,4R,6aR)-2-benzyloctahydrocyclopenta[c]pyrrol-4-yl]-3-methyl-2-phenylbutanamide], 2.68 µM; that for `CC(C)C[C@@H](C(=O)N[C@@H]1CC[C@H]2CN(Cc3ccccc3)C[C@H]21)N(C)S(C)(=O)=O` [Example 168, N^1-[(3aS,4R,6aR)-2-benzyloctahydrocyclopenta[c]pyrrol-4-yl]-N^2-methyl-N^2-(methylsulfonyl)-L-leucinamide], 12.9 µM. The same measure, in the same setting: the result for “(3aR,4S,6aS)-N-(1H-pyrrolo[2,3-b]pyridin-2-ylmethyl)-2-[6-(trifluoromethyl)pyridin-2-yl]octahydrocyclopenta[c]pyrrol-4-amine [Example 693]” reads 1.42 µM. On the same count and under the same terms, the same measure for `CCC[C@@H](C(=O)N[C@@H]1CC[C@@H]2CN(S(=O)(=O)c3ccc(C(F)(F)F)cc3)C[C@@H]21)N(C)C(=O)OC(C)(C)C` [Example 328, tert-butyl methyl((S)-1-oxo-1-((3aR,4R,6aS)-2-(4-(trifluoromethyl)phenylsulfonyl)octahydrocyclopenta[c]pyrrol-4-ylamino)pentan-2-yl)carbamate]: 1.39 µM. Consider `Cc1cccc(CN2C[C@H]3CC[C@H](NC(=O)C(c4ccccc4)C(C)C)[C@H]3C2)c1` (stereo partly drawn) [Example 91, 3-methyl-N-[(3aR,4S,6aS)-2-(3-methylbenzyl)octahydrocyclopenta[c]pyrrol-4-yl]-2-phenylbutanamide], for which the IC50 was 1.78 µM. Consider `C[C@H](C(=O)N[C@@H]1CC[C@H]2CN(Cc3ccccc3)C[C@H]21)c1cccc(C(=O)c2ccccc2)c1` (relative stereo) [Example 13, (2S)-2-(3-benzoylphenyl)-N-[(3aS*,4R*,6aR*)-2-benzyloctahydrocyclopenta[c]pyrrol-4-yl]propanamide], for which the IC50 worked out at 23.6 µM.
